≈ marks a conversion by molar mass, not a printed value. Positions of bridges follow the written chain, without caps; N, C: chain ends. Residues, ends and D or L forms follow the SMILES beside them.
Experiments:
[1] = tested on: Candida albicans_ATCC10231; assay: microbe, parasite or virus in culture
Experimental: (§1) To achieve a final cell concentration of 2 × 10^6 CFU/mL, mid-log phase cultures were diluted with a Yeast and Mold (YM) broth and then put to 96-well plates with two-fold serially diluted peptides (from 0.1 to 89.8 µM) in a 1:1 ratio.

[2] = tested on: Candida auris_55; assay: microbe, parasite or virus in culture
Experimental: as §1

[3] = tested on: Candida auris_84; assay: microbe, parasite or virus in culture
Experimental: as §1

[4] = tested on: Cryptococcus neoformans_ATCC32045; assay: microbe, parasite or virus in culture
Experimental: as §1

[5] = tested on: Cryptococcus neoformans_BNCC225501; assay: microbe, parasite or virus in culture
Experimental: as §1

[6] = tested on: chymotrypsin; settings: peptide 1 mg/mL, peptide:enzyme 250:1, 5 mM CaCl2, 50 mM Tris-HCl pH 7.4, 37 °C, time points 0 to 12 h, SDS-PAGE bands
Experimental: (§2) The mixture was heated for 10 min at 95 °C to halt enzymatic reaction. A solution of 20 µL of the SDS-PAGE loading buffer (5×) was added to 80 µL of the sample, mixed by vortexing and heated for 5 min at 95 °C. SDS-PAGE analysis was performed using Omni-PAGE™Precast HEPES-Tris Gels. LL37 and colistin antibiotics were used as controls.

[7] = tested on: trypsin; settings: peptide 1 mg/mL, peptide:enzyme 250:1, 5 mM CaCl2, 50 mM Tris-HCl pH 7.4, 37 °C, time points 0 to 12 h, SDS-PAGE bands
Experimental: as §2

[8] = In vivo acute toxicity test; settings: mouse, in vivo, ip; mice, single intraperitoneal dose, observed up to 72 h
Experimental: (§3) The peptide was administered in decreasing dosages to the different groups of mice. The concentration was lowered after three repeats if death was immediate, and 6 mice were injected if no death occurred. Following injection, mice were examined visually for any indications of toxicity, and the times at which mice died were recorded at 12/24/48/60 and 72 h. The following signs were used to assess toxicity: hunched back, ruffled fur, poor motility, and total immobility resulting in death.

[9] = tested on: C57BL/6J male mice; assay: In vivo acute toxicity test
Experimental: as §3

[10] = tested on: C. neoformans; settings: then 4 × MIC on C. neoformans 1 × 10^6 CFU/mL, absorbance 595 nm
Experimental: Incubation of the mixture was performed for 3 h at 37 °C. A volume of 100 µL of fresh yeast extract peptone dextrose agar (YPDA) broth media was added to the mixture followed by a further 16 h of incubation. Included as negative controls were samples containing heat-inactivated protease with no peptide but media only. The inhibition of fungal growth was detected by measuring absorbance at 595 nm with a Synergy H1 Micro plate Reader (Bio-Tek, Winooski, VT, USA). The assays were performed in three replicates.

[11] = tested on: C. neoformans BNCC225501; assay: Time-killing kinetics assay; format: cell-based, Cryptococcus neoformans
Experimental: C. neoformans fungi grown to mid-log phase was adjusted with normal saline to 1 × 10^5 CFU/mL. […] A volume of 10 µL of the sample was taken at each time point and diluted with sterile normal saline to 100-fold. A total of 100 µL of the dilution was seeded on YPDA media agar plates in three replicates for each concentration per time point. Plates were incubated for 18–24 h at 37 °C, and the number of viable colonies was determined to assess the rate of fungi growth.

[12] = tested on: C. neoformans; assay: Scanning and transmission electron microscopy; format: cell-based, Cryptococcus neoformans; settings: 10× the MIC; 14 µM, 2 h at 37 °C
Experimental: C. neoformans were cultured in YPDA broth to mid-log phase and diluted with normal saline (0.9% sodium chloride) to 1 × 10^9 CFU/mL. The cultures were centrifuged at 3500 rpm for 5 min, and the supernatant was discarded. After three washes with normal saline, the fungal pellets were re-suspended in normal saline. […] At 2 h post-incubation, the suspensions were centrifuged at 3500 rpm for 5 min, the supernatant was aspirated, and the pellets were re-suspended/fixed in 1 mL of 2.5% glutaraldehyde. Fixation was performed overnight at 4 °C. Next, the samples were washed in normal saline and dehydrated in a graded series of ethanol (50%, 70%, 90%, and 100%). In the end, the pellets were placed on aluminum stubs, vacuum sputter-coated in gold, and the Hitachi S-3000N (Tokyo, Japan) SEM was used to examine the membrane morphology.
For transmission electron microscopy, the cells were cultured and harvested as described above. After dehydration, cells were embedded and stained for observation under transmission electron microscopy.

[13] = tested on: C. neoformans; assay: Membrane potential assay, DiSC3(5) dye; format: cell-based, Cryptococcus neoformans; settings: 1×, 2×, 4× and 8× the MIC, up to 40 min, ex/em 622/670 nm
Experimental: An overnight culture of C. neoformans cells was washed thrice and re-suspended in the HEPES buffer (with 5 mM of HEPES, 20 mM of glucose and 0.1 M of KCl, pH 7.5) to achieve a cell density of 10^8 CFU/mL. The fungal suspension was then incubated with 10 µM of DiSC3(5) for 30 min at 37 °C in the dark. […] PBS was added as the negative control and amphotericin B as the positive control. The negative control PBS-treated wells were used to establish baseline fluorescence. Fluorescence intensity was measured and recorded over time for up to 40 min at excitation/emission wavelengths of 622/670 nm. An increase in fluorescence indicated membrane depolarization, which implies the disruption of membrane integrity.

[14] = tested on: C. neoformans BNCC225501 biofilm; assay: Biofilm eradication assay, crystal violet; format: cell-based, Cryptococcus neoformans
Experimental: Evaluation of the peptide’s ability to eradicate C. neoformans BNCC225501 biofilms was performed by culturing and harvesting the fungal cells as described in the biofilm inhibition assay above. Incubation of the fungal solution (1 × 10^6 CFU/mL in YPDA media) was conducted in 96-well plates for 48 h at 37 °C. […] Excess stain was washed off with PBS, and 95% ethanol (100 µL) was added. Using a microplate reader, absorbance was determined at 600 nm for quantification of the percentage of biofilm eradication.

[15] = tested on: C. neoformans BNCC225501 biofilms; assay: Two-photon laser scanning microscopy of biofilms, FDA/PI; format: cell-based, Cryptococcus neoformans; settings: 0.5× to 8 × the MIC, 24 h at 37 °C
Experimental: Fluorescein diacetate (FDA) and Propidium iodide (PI) dyes were utilized to stain live and dead cells, respectively. The fungi were cultured in YPDA broth media at 37 °C to the mid-logarithmic phase. Fungal cells were centrifuged at 3500 rpm for 5 min and then washed thrice with normal saline (0.9% sodium chloride). The fungal suspension was diluted to 1 × 10^9 CFU/mL in YPDA broth media, and, then, 500 µL was added to wells in a 24-well plate. Incubation was performed for 24 h at 37 °C; then, wells were washed thrice with PBS. […] Normal saline was added to the negative control group. […] After incubation, the non-adherent cells were washed with PBS, 250 µL (10 µg/mL) of FDA dye (Solarbio, Beijing, China) was added to each well and left in the dark for 20 min, and, then, 250 µL (5 µg/mL) of PI dye (Solarbio, Beijing, China) was added and co-stained in the dark for 10 min. Microscopy observation was performed utilizing the TPLSM (A1MP+, Nikon, Tokyo, Japan) at 555 nm and 488 nm excitations for PI and FDA, respectively.

[16] = tested on: C. neoformans; assay: Mice systemic infection model, fungal burden; format: in vivo, C57BL/6J female mice; settings: immunocompromised mice, 8 × 10^6 CFU/mouse i.p., QS18 1, 2, 4 mg/kg i.p. 12 h after infection, read 12 h post-treatment, n = 4
Experimental: (§4) Mice systemic infection and the treatment model were performed to assess the dissemination of fungi to target organs as described by with little modifications. C57BL/6J female mice 20 ± 2 g were immunocompromised through the intraperitoneal injection of 150 mg/kg cyclophosphamide for four days prior to infection. C. neoformans was then cultured in YPDA broth media to mid-log phase. […] Fungal pellets were resuspended in the same buffer, and the optical density (OD) value was adjusted to 4 × 10^7 CFU/mL. A volume of 200 µL of the fungal solution was i.p. injected into immunocompromised mice (n = 4), a total of 8 × 10^6 colony-forming units (CFUs) injected per mouse. Twelve hours post-intraperitoneal inoculation of the fungi, treatment was administered. […] Twelve hours post-treatment, the mice were sacrificed, and blood was collected through retro-orbital bleeding. Organs (lung, liver, kidney, and spleen) were also harvested and divided into two parts. One portion was weighed and placed into a grinding tube with 1 mL of normal saline and then homogenized in a tissue grinder to assess the fungal burden, while fixation of the other portion was performed for the histopathology examination. Following a 5-fold serial dilution in normal saline, 100 µL of the homogenates were seeded on YPDA plates and incubated at 37 °C for 48 h before counting colonies.

[17] = tested on: C. neoformans; assay: Histopathological examination of infected mice; format: in vivo, C57BL/6J female mice; settings: 4 mg/kg i.p., lung, liver, spleen and kidney, 12 h post-treatment
Experimental: as §4, with “colonies. […]” for “colonies.”

[18] = tested on: TNF-α, IL-6, IL-1β, MCP-1; assay: Plasma cytokine levels of infected mice, ELISA; format: in vivo, C57BL/6J female mice; settings: QS18 1, 2, 4 mg/kg i.p., n = 4
Experimental: as §4, with “One portion was weighed and placed into a grinding tube with 1 mL of normal saline and then homogenized in a tissue grinder to assess the fungal burden, while fixation of the other portion was performed for the histopathology examination. Following a 5-fold serial dilution in normal saline, 100 µL of the homogenates were seeded on YPDA plates and incubated at 37 °C for 48 h before counting colonies.” left out
Blood collected through retro-orbital bleeding was centrifuged for 25 min at 5000 rpm to isolate plasma. Following the manufacturer’s guidelines, standard enzyme-linked immunosorbent assay (ELISA) kits were used to quantify the cytokine levels of tumor necrosis factor-α (TNF-α), interleukin-6 (IL-6), interleukin--1β (IL-1β), and monocyte chemoattractant protein-1 (MCP-1) in the plasma.

[19] = broth microdilution, YM broth, 2 × 10^6 CFU/mL, 24 h at 37 °C, lowest concentration that fully inhibited growth

For `CC(C)[C@H](NC(=O)[C@H](CCCCN)NC(=O)[C@H](Cc1ccccc1)NC(=O)[C@H](CS)NC(=O)[C@@H](N)CCC(N)=O)C(=O)N[C@@H](CS)C(=O)N[C@@H](Cc1ccccc1)C(=O)N[C@@H](CCCNC(=N)N)C(=O)N[C@@H](CCCCN)C(=O)N[C@@H](CCCNC(=N)N)C(=O)N[C@@H](CS)C(=O)N[C@@H](Cc1ccccc1)C(=O)N[C@H](C(=O)N[C@@H](CCCCN)C(=O)N[C@@H](CS)C(=O)N[C@@H](CO)C(=O)N[C@@H](CCCNC(=N)N)C(=O)N[C@@H](CO)C(=O)O)[C@@H](C)O` [QS18red] (H-QCFKVCFRKRCFTKCSRS-OH), the MIC [1, 19] was over 89.8 µM, the MIC [2, 19] was over 89.8 µM and the MIC [3, 19] was 44.9 µM (≈ 100 µg/mL). For the same compound, the MIC [4, 19] was at least 89.8 µM, the MIC [5, 19] was 89.8 µM (≈ 200 µg/mL) and the “proteolytic stability with chymotrypsin” value [6] was “faint initial band that disappeared after 15 min”. The “proteolytic stability with trypsin” value [7] was “no bands observed even at t = 0 min”.

`C[C@@H]1[C@H](O)[C@@H](C)/C=C/C=C/C=C/C=C/C=C/C=C/C=C/[C@H](O[C@@H]2O[C@H](C)[C@@H](O)[C@H](N)[C@@H]2O)C[C@@H]2O[C@](O)(C[C@@H](O)C[C@@H](O)[C@H](O)CC[C@@H](O)C[C@@H](O)CC(=O)O[C@H]1C)C[C@H](O)[C@H]2C(=O)O` [Amphotericin B, amphotericin B, reference compound] showed an MIC ([1]; Candida, 24 h) of at most 0.4 µM, an MIC ([2]; Candida, 24 h) of 1.7 µM (≈ 1.57 µg/mL) and an MIC ([3]; Candida, 24 h) of 0.8 µM (≈ 0.739 µg/mL). For the same compound, the MIC ([4]; Cryptococcus, 24 h) was 3.4 µM (≈ 3.14 µg/mL) and the MIC ([5]; Cryptococcus, 24 h) was 1.7 µM (≈ 1.57 µg/mL).

With `CC(C)[C@@H]1NC(=O)[C@H](CCCCN)NC(=O)[C@H](Cc2ccccc2)NC(=O)[C@@H](NC(=O)[C@@H](N)CCC(N)=O)CSSC[C@@H](C(=O)N[C@@H](CO)C(=O)N[C@@H](CCCNC(=N)N)C(=O)N[C@@H](CO)C(N)=O)NC(=O)[C@H](CCCCN)NC(=O)[C@H]([C@@H](C)O)NC(=O)[C@H](Cc2ccccc2)NC(=O)[C@@H]2CSSC[C@H](NC1=O)C(=O)N[C@@H](Cc1ccccc1)C(=O)N[C@@H](CCCNC(=N)N)C(=O)N[C@@H](CCCCN)C(=O)N[C@@H](CCCNC(=N)N)C(=O)N2` [QS18] (H-QCFKVCFRKRCFTKCSRS-NH2; disulfide 2-15, 6-11; N-terminus and C-terminus assumed) the “MIC times lower than that of fluconazole” value ([5]; oxidized QS18 compared with fluconazole) was “approximately fourteen”, the LD50 at 72 h [8] was 30 mg/kg and the “LD50 i.p. compared to intravenous administration” value [9] was “two-fold”. The acute toxicity observation ([9]; intravenous, 10 mg/kg, over 72 hours) was “no signs of toxicity or death”, the intravenous toxicity ([9]; intravenous, 20 mg/kg and 40 mg/kg) was “lethal effect” and the “proteolytic stability with chymotrypsin” value [6] was “remained stable in chymotrypsin even after 12 h of incubation”. The “proteolytic stability with trypsin” value [7] was “complete degradation after 1 h”, the “antifungal activity after chymotrypsin exposure” value ([10]; 2 h with chymotrypsin (250:1) at 37 °C) was “maintained its activity” and the “antifungal efficacy after trypsin exposure” value ([10]; 2 h with trypsin (250:1) at 37 °C) was “reduced antifungal efficacy”. For the same compound, the “time to no fungal growth” value ([11]; 5× the MIC, 1 × 10^5 CFU/mL, 37 °C, colony count) was 120 min, the “time to kill fungi” value ([11]; C. neoformans BNCC 225501, as worded in the discussion) was “within an hour” and the “cell morphology by SEM and TEM” value [12] was “leaked cytoplasmic contents, as well as irregular cell morphology with shrunken cell surfaces”. The “DiSC3(5) fluorescence (membrane depolarization)” value [13] was “significant increase in fluorescence”, the “eradication of preformed biofilms” value ([14]; 1 × MIC, 48 h preformed biofilm, crystal violet OD600) was “up to 65%” and the eradication of biofilms ([14]; sub-MIC levels) was “over 50%”. For the same compound, the “viability of biofilm cells, PI/FDA fluorescence” value [15] was “decreased dose-dependently”, the “fungal burden (CFU) in lung, liver, kidney, spleen and blood” value [16] was “significant suppression of fungi dissemination to target organs” and the “tissue morphology, H&E staining” value [17] was “near-normal tissue morphology”. The “plasma IL-1β, IL-6, TNF-α and MCP-1” value [18] was “dose-dependent reductions in these inflammatory markers”.
